Reference: patent publication US20260078103A1, “ISOQUINOLONES AS PI3K INHIBITORS” (OnKure, Inc., priority 2022, published 2026)
Like-named read-outs stand apart in the source and are kept apart here.

Tests used:
Assay type in all cases: cell-based
[1] = test system: T47D cells expressing mutant PI3Ka (H1047R); test: In vitro cell proliferation, T47D cells (CellTiter-Glo); conditions: inhibition of proliferation, read-out: Avg T-47D EC50
Experimental: (§1) In Vitro Cell Proliferation: Determination of EC50 Values for Inhibition of Proliferation in T47D Cells Expressing Mutant PI3Ka (H1047R) Mutation and SKBR3 Cells Express WT PI3Ka.
(§2) T47D or SKBR3 cells were trypsinized, resuspended in culture media and seeded onto assay ready plates. T47D culture media consisted of RPMI, 10% FBS and Insulin (0.2 units/mL). SKBR3 culture media consisted of McCoys 5a and 10% FBS. Cells were seeded at a density of 1,500 cells/well and dispensed in 50 μl onto 384 well assay ready plates (Corning, 89089-790). Assay ready plates had previously been stamped with 10-point dilutions of compounds of interest, as well as controls. The Echo655 is used to stamp plates at 40 nL of compound or DMSO. Cells were grown for 72 hours at 37° Celsius and 5% CO2. After 72 hours, cells were equilibrated at room temperature for 15 minutes. 30 μL of CellTiter-Glo reagent is added to the plate, which is then shaken for 30 minutes at temperature at 300-500 rpm. Cells are then read on an Envision plate reader. The percentage of inhibition of proliferation was calculated using the following formula: % Inhibition=100×(LumD−Lumsample)/(LumD−Lumlnh), where D is obtained from cells treated with 0.1% DMSO only; lnh is obtained from cells treated with 10 uM Alpelisib. The effective concentration achieving 50% inhibition of proliferation (EC50) is calculated by fitting the Curve using Xlfit (v5.3.1.3), equation 201: Y=Bottom+(Top−Bottom)/(1+10^((LogEC50−X)*HillSlope)).

[2] = test system: SKBR3 cells express WT PI3Ka; test: In vitro cell proliferation, SKBR3 cells (CellTiter-Glo); conditions: inhibition of proliferation
Experimental: as §1, §2

[3] = test system: phosphorylation of AKT (pAKT) in SKBR3 cells express WT PI3Ka; test: In vitro cell pAKT (Ser473) HTRF, SKBR3 cells; conditions: cellular pAKT
Experimental: (§3) In Vitro Cell pAKT: Determination of IC50 Values for Inhibition of Phosphorylation of AKT (pAKT) in T47D Cells Expressing Mutant PI3Ka (H1047R) Mutation and SKBR3 Cells Express WT PI3Ka.
(§4) T47D or SKBR3 cells were trypsinized, resuspended in culture media and seeded onto assay ready plates. T47D culture media consisted of RPMI, 10% FBS and Insulin (0.2 units/mL). SKBR3 culture media consisted of McCoy's 5a and 10% FBS. Cells were seeded at a density of 5000 cells/well and dispensed in 12.5 μL onto 384 well assay ready plates (Perkin Elmer, 6008238)). Assay ready plates had previously been stamped with 10-point dilutions of compounds of interest, as well as controls. The Echo655 is used to stamp plates at 12.5 nL of compound or DMSO. Cells were grown for 6 hours at 37° Celsius and 5% CO2. After 6 hours, 4 μL of Lysis buffer reagent was added to the plate, which was then centrifuged for 1 minute at 1000 rpm. Then the plate was incubated at room temperature for 30 minutes. After 30 minutes, 4 μL of antibody mix containing Eu Cryptate, d2 Cryptate, and detection buffer, was added to the plate. The plate was centrifuged for 1 minute at 1000 rpm and then incubated overnight at room temperature. The plate was read on an Envision plate reader using the HTRF protocol. The percentage of inhibition of AKT phosphorylation was calculated using the following formula: % Inhibition=100×(pAKTHC−pAKTSample)/(pAKTHC−pAKTLC)), where pAKTHC is obtained from cells treated with 0.1% DMSO only; PAKTLC is obtained from cells treated with 10 uM Alpelisib. The IC50 (concentration achieving 50% inhibition of pAKT) is calculated by fitting the Curve using XIfit (v5.3.1.3), equation 201: Y=Bottom+(Top−Bottom)/(1+10^((LogIC50−X)*HillSlope)).

[4] = test system: phosphorylation of AKT (pAKT) in T47D cells expressing mutant PI3Ka (H1047R); test: In vitro cell pAKT (Ser473) HTRF, T47D cells
Experimental: as §3, §4

[5] = cellular pAKT, T47D cells, mutant PI3Ka (H1047R), 6 hours; read-out: Avg T-47D IC50

SMILES | EC50 ([1]; 72 hours) [nM] | EC50 ([2]; 72 hours) [nM] | IC50 ([3]; 6 hours) [nM] | IC50 [4, 5] [nM] | IC50 ([4]; read-out: Avg T-47D IC50; cellular pAKT, T47D cells, mutant PI3Ka (H1047R), 6 hours) [nM] | EC50 ([2]; Homo sapiens, SK-BR-3, 72 h) [nM] | IC50 ([3]; Homo sapiens, SK-BR-3, 6 h) [nM] | EC50 ([1]; Homo sapiens, T47D, 72 h) [nM]
Cc1cc(C(C)Nc2ccccc2C(=O)O)c2cc(N3CCC(c4ccccc4)C3)n(C)c(=O)c2c1 (mixture of isomers) [Example 60] | 500 to 2000 | > 15000 | > 15000 | 1 to 500 |  |  |  | 
Cc1cc(C(C)Nc2ccccc2C(=O)O)c2cc(N3CC4CN(CC(F)(F)F)CC4C3)n(C)c(=O)c2c1 (mixture of isomers) [Example 90] | 500 to 2000 | > 15000 | > 15000 | 500 to 2000 |  |  |  | 
Cc1cc(C(C)Nc2ccccc2C(=O)O)c2cc(N3CCN(C(C)C(F)(F)F)CC3)n(C)c(=O)c2c1 (mixture of isomers) [Example 271] | 1 to 500 | 2000 to 15000 | > 15000 | 1 to 500 |  |  |  | 
Cc1cc(C(C)Nc2ccccc2C(=O)O)c2cc(N3CCC(C)(C)CC3)n(C)c(=O)c2c1 (single isomer, unassigned) [Example 2, 2-((1-(3-(4,4-dimethylpiperidin-1-yl)-2,7-dimethyl-1-oxo-1,2-dihydroisoquinolin-5-yl)ethyl)amino)benzoic acid] | 2000 to 15000 | > 15000 | > 15000 |  | > 15000 |  |  | 
Cc1cc(C(C)Nc2ccc(Cl)nc2C(=O)O)c2cc(N3CCC(C)(C)CC3)n(C)c(=O)c2c1 (single isomer, unassigned) [Example 3, 6-chloro-3-((1-(3-(4,4-dimethylpiperidin-1-yl)-2,7-dimethyl-1-oxo-1,2-dihydroisoquinolin-5-yl)ethyl)amino)picolinic acid] | 1 to 500 |  | 2000 to 15000 | 500 to 2000 |  | 2000 to 15000 |  | 
Cc1cc(C(C)Nc2ccc(Cl)nc2C(=O)O)c2cc(N3CCC(C)(C)CC3)n(C)c(=O)c2c1 (single isomer, unassigned) [Example 4, 6-chloro-3-((1-(3-(4,4-dimethylpiperidin-1-yl)-2,7-dimethyl-1-oxo-1,2-dihydroisoquinolin-5-yl)ethyl)amino)picolinic acid] | 2000 to 15000 | 2000 to 15000 | > 15000 | 2000 to 15000 |  |  |  | 
Cc1cc(C(C)Nc2ccccc2C(=O)O)c2cc(C3=CCC(C)(C)CC3)n(C)c(=O)c2c1 (single isomer, unassigned) [Example 5, 2-((1-(3-(4,4-dimethylcyclohex-1-en-1-yl)-2,7-dimethyl-1-oxo-1,2-dihydroisoquinolin-5-yl)ethyl)amino)benzoic acid] | 2000 to 15000 | > 15000 | > 15000 | 2000 to 15000 |  |  |  | 
Cc1cc(C(C)Nc2ccccc2C(=O)O)c2cc(C3=CCC(C)(C)CC3)n(C)c(=O)c2c1 (single isomer, unassigned) [Example 6, 2-((1-(3-(4,4-dimethylcyclohex-1-en-1-yl)-2,7-dimethyl-1-oxo-1,2-dihydroisoquinolin-5-yl)ethyl)amino)benzoic acid] | 1 to 500 | 2000 to 15000 | 2000 to 15000 | 1 to 500 |  |  |  | 
Cc1cc(C(C)Nc2ccccc2C(=O)O)c2cc(N3CCN(CC(F)(F)F)CC3)n(C)c(=O)c2c1 (single isomer, unassigned) [Example 9, 2-((1-(2,7-dimethyl-1-oxo-3-(4-(2,2,2-trifluoroethyl)piperazin-1-yl)-1,2-dihydroisoquinolin-5-yl)ethyl)amino)benzoic acid] | 2000 to 15000 | > 15000 | > 15000 | 2000 to 15000 |  |  |  | 
Cc1cc(C(C)Nc2ccccc2C(=O)O)c2cc(N3CC4CCC(C4)C3)n(C)c(=O)c2c1 (single isomer, unassigned) [Example 10, 2-((1-(3-(3-azabicyclo[3.2.1]octan-3-yl)-2,7-dimethyl-1-oxo-1,2-dihydroisoquinolin-5-yl)ethyl)amino)benzoic acid] | 2000 to 15000 |  | > 15000 | > 15000 |  | 2000 to 15000 |  | 
Cc1cc(C(C)Nc2ccccc2C(=O)O)c2cc(N3CC4CCC(C4)C3)n(C)c(=O)c2c1 (single isomer, unassigned) [Example 11, 2-((1-(3-(3-azabicyclo[3.2.1]octan-3-yl)-2,7-dimethyl-1-oxo-1,2-dihydroisoquinolin-5-yl)ethyl)amino)benzoic acid] | 1 to 500 | 2000 to 15000 | 2000 to 15000 | 1 to 500 |  |  |  | 
Cc1cc(C(C)Nc2ccccc2C(=O)O)c2cc(N3CCN(C)CC3)n(C)c(=O)c2c1 (single isomer, unassigned) [Example 12, 2-((1-(2,7-dimethyl-3-(4-methylpiperazin-1-yl)-1-oxo-1,2-dihydroisoquinolin-5-yl)ethyl)amino)benzoic acid] | > 15000 |  |  | > 15000 |  | > 15000 | > 15000 | 
Cc1cc(C(C)Nc2ccccc2C(=O)O)c2cc(N3CCN(C)CC3)n(C)c(=O)c2c1 (single isomer, unassigned) [Example 13, 2-((1-(2,7-dimethyl-3-(4-methylpiperazin-1-yl)-1-oxo-1,2-dihydroisoquinolin-5-yl)ethyl)amino)benzoic acid] | 500 to 2000 | > 15000 | > 15000 | 500 to 2000 |  |  |  | 
Cc1cc(C(C)Nc2ccccc2C(=O)O)c2cc(N3Cc4cccnc4C3)n(C)c(=O)c2c1 (single isomer, unassigned) [Example 18, 2-((1-(3-(5,7-dihydro-6H-pyrrolo[3,4-b]pyridin-6-yl)-2,7-dimethyl-1-oxo-1,2-dihydroisoquinolin-5-yl)ethyl)amino)benzoic acid] | 2000 to 15000 |  |  | > 15000 |  | 2000 to 15000 | > 15000 | 
Cc1cc(C(C)Nc2ccccc2C(=O)O)c2cc(N3Cc4ccc(F)cc4C3)n(C)c(=O)c2c1 (single isomer, unassigned) [Example 50] | 2000 to 15000 | > 15000 |  |  |  |  |  | 
Cc1cc(C(C)Nc2ccccc2C(=O)O)c2cc(C3CCC(C)(C)CC3)n(C)c(=O)c2c1 (single isomer, unassigned) [Example 51] | 2000 to 15000 | > 15000 |  |  |  |  |  | 
Cc1cc(C(C)Nc2ccccc2C(=O)O)c2cc(C3CCC(C)(C)CC3)n(C)c(=O)c2c1 (single isomer, unassigned) [Example 52] | 1 to 500 | 2000 to 15000 |  |  |  |  |  | 
Cc1ccc(N[C@H](C)c2cc(F)cc3c(=O)n(C)c(C4CC4C4CC4)cc23)c(C(=O)O)n1 (stereo in doubt) [Example 46, -(((R)-1-(3-(trans-[1,1′-bi(cyclopropan)]-2-yl)-7-fluoro-2-methyl-1-oxo-1,2-dihydroisoquinolin-5-yl)ethyl)amino)-6-methylpicolinic acid] | 500 to 2000 |  | > 15000 | 1 to 500 |  |  |  | 
Cc1cc(C(C)Nc2ccccc2C(=O)O)c2cc(N3C[C@@H]4[C@@H](C#N)[C@@H]4C3)n(C)c(=O)c2c1 (stereo partly drawn) [Example 16, 2-((1-(3-((1R,5S,6r)-6-cyano-3-azabicyclo[3.1.0]hexan-3-yl)-2,7-dimethyl-1-oxo-1,2-dihydroisoquinolin-5-yl)ethyl)amino)benzoic acid] | 2000 to 15000 |  |  | > 15000 |  |  |  | 
Cc1cc(C(C)Nc2ccccc2C(=O)O)c2cc(N3CC(c4ccccc4)C3)n(C)c(=O)c2c1 (centres unmarked) [Example 53] |  |  |  |  |  | > 15000 |  | 2000 to 15000
CC(=O)N1CCN(c2cc3c(C(C)Nc4ccccc4C(=O)O)cc(C)cc3c(=O)n2C)CC1 (centres unmarked) [Example 54] |  |  |  |  |  | > 15000 |  | 2000 to 15000
